Measurements reported in publication PMC4522657, “Identification of a DYRK1A Inhibitor that Induces Degradation of the Target Kinase using Co-chaperone CDC37 fused with Luciferase nanoKAZ” (Scientific Reports, 2015).

Tests used:
Assay in all cases: Kinase panel, CaNDY 1 µM
Type in all cases: biochemical
Conditions in all cases: CaNDY 1 µM relative to DMSO
ALK(F1174L) = biological target: T1, ALK(F1174L) (Homo sapiens, UniProt Q9UM73, F1174L)
T1 construct: purchased Carna Biosciences
Method in brief: (§1)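 Compound in DMSO is diluted into assay buffer (final 1% DMSO) and incubated with the kinase reaction for one hour at room temperature. Substrate and phosphorylated product are then separated electrophoretically, and the P/(P + substrate) ratio gives percent inhibition versus an untreated control.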

AurA = biological target: T2, AurA (Homo sapiens, UniProt O14965)
T2 construct: purchased Carna Biosciences
T2 sequence (O14965 whole entry): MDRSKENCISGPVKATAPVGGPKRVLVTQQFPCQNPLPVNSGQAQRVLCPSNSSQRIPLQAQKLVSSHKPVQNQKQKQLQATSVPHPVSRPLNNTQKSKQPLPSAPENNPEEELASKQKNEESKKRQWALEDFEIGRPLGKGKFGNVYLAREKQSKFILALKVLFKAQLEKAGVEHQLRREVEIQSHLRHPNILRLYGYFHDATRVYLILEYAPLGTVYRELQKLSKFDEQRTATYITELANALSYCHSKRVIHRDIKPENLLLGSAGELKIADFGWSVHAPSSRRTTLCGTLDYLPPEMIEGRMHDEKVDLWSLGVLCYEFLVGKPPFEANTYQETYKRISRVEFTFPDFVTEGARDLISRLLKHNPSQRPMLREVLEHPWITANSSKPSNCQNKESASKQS
Method in brief: as §1

BRAF_Cascade = biological target: T3, BRAF_Cascade (Homo sapiens, UniProt P15056)
T3 construct: purchased Carna Biosciences
Method in brief: as §1

BRSK2 = biological target: T4, BRSK2 (Homo sapiens, UniProt Q8IWQ3)
T4 construct: purchased Carna Biosciences
Method in brief: as §1

CK1δ = biological target: T5, CK1δ (Homo sapiens, UniProt P48730)
T5 construct: purchased Carna Biosciences
Method in brief: as §1

CSK = biological target: T6, CSK (Homo sapiens, UniProt P41240)
T6 construct: purchased Carna Biosciences
Method in brief: as §1

CaMK2α = biological target: T7, CaMK2α (Homo sapiens, UniProt Q9UQM7)
T7 construct: purchased Carna Biosciences
Method in brief: as §1

EEF2K = biological target: T8, EEF2K (Homo sapiens, UniProt O00418)
T8 construct: purchased Carna Biosciences
T8 sequence (O00418 whole entry): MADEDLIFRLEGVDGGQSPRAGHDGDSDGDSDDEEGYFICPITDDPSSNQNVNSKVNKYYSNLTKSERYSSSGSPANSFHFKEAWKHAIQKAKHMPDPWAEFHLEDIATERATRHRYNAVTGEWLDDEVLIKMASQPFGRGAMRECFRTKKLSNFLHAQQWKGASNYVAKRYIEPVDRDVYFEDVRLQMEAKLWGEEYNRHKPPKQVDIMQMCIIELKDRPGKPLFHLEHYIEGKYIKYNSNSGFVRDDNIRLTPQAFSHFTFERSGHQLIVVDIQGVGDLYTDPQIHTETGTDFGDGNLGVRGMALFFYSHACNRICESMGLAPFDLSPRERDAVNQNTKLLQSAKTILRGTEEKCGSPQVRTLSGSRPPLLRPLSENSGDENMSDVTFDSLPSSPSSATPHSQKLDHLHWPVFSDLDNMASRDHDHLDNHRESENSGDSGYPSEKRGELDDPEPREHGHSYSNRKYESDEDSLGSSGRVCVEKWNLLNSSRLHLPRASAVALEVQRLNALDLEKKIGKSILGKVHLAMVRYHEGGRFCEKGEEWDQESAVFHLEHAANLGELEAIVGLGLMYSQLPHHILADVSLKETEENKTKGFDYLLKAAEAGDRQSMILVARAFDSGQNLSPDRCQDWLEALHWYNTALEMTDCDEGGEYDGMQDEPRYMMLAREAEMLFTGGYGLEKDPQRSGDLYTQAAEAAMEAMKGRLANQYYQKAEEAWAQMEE
Method in brief: as §1

EPHA3 = biological target: T9, EPHA3 (Homo sapiens, UniProt P29320)
T9 construct: purchased Carna Biosciences
Method in brief: as §1

EPHB3 = biological target: T10, EPHB3 (Homo sapiens, UniProt P54753)
T10 construct: purchased Carna Biosciences
T10 sequence (P54753 34-998): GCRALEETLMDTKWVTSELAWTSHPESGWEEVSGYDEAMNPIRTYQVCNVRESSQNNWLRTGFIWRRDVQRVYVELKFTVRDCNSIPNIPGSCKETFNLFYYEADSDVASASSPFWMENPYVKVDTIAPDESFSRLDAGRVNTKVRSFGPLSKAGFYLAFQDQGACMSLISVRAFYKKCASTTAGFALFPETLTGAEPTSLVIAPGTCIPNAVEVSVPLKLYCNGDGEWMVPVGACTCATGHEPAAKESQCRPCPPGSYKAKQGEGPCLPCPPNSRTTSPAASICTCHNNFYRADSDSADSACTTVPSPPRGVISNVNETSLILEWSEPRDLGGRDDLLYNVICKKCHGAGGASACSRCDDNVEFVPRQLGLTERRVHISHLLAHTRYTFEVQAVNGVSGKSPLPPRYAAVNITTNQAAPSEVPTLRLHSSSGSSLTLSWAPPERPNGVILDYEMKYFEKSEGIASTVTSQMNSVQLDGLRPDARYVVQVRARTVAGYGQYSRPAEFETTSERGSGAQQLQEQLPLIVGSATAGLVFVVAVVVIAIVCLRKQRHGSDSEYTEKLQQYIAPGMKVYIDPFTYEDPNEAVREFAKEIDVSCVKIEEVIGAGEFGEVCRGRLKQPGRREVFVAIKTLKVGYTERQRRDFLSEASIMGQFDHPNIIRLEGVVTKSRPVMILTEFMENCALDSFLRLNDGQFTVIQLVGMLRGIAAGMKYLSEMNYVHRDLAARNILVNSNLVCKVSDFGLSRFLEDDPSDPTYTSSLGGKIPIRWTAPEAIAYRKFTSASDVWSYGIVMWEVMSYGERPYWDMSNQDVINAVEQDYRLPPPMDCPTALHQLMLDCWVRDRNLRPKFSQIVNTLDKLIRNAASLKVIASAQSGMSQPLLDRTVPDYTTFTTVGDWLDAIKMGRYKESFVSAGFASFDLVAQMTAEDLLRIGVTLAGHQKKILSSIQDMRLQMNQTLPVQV
Method in brief: as §1

FRK = biological target: T11, FRK (Homo sapiens, UniProt P42685)
T11 construct: purchased Carna Biosciences
Method in brief: as §1

KIT(D816V) = biological target: T12, KIT(D816V) (Homo sapiens, UniProt P10721, D816V)
T12 construct: purchased Carna Biosciences
Method in brief: as §1

LOK = biological target: T13, LOK (Homo sapiens, UniProt O94804)
T13 construct: purchased Carna Biosciences
Method in brief: as §1

LYNa = biological target: T14, LYNa (Homo sapiens, UniProt P07948)
T14 construct: purchased Carna Biosciences
Method in brief: as §1

MSSK1 = biological target: T15, MSSK1 (Homo sapiens, UniProt Q9UPE1)
T15 construct: purchased Carna Biosciences
Method in brief: as §1

MST3 = biological target: T16, MST3 (Homo sapiens, UniProt Q9Y6E0)
T16 construct: purchased Carna Biosciences
Method in brief: as §1

NEK4 = biological target: T17, NEK4 (Homo sapiens, UniProt P51957)
T17 construct: purchased Carna Biosciences
Method in brief: as §1

PKR = biological target: T18, PKR (Homo sapiens, UniProt P19525)
T18 construct: purchased Carna Biosciences
Method in brief: as §1

PLK3 = biological target: T19, PLK3 (Homo sapiens, UniProt Q9H4B4)
T19 construct: purchased Carna Biosciences
Method in brief: as §1

ROCK2 = biological target: T20, ROCK2 (Homo sapiens, UniProt O75116)
T20 construct: purchased Carna Biosciences
Method in brief: as §1

SRM = biological target: T21, SRM (Homo sapiens, UniProt Q9H3Y6)
T21 construct: purchased Carna Biosciences
Method in brief: as §1

TBK1 = biological target: T22, TBK1 (Homo sapiens, UniProt Q9UHD2)
T22 construct: purchased Carna Biosciences
T22 sequence (Q9UHD2 whole entry): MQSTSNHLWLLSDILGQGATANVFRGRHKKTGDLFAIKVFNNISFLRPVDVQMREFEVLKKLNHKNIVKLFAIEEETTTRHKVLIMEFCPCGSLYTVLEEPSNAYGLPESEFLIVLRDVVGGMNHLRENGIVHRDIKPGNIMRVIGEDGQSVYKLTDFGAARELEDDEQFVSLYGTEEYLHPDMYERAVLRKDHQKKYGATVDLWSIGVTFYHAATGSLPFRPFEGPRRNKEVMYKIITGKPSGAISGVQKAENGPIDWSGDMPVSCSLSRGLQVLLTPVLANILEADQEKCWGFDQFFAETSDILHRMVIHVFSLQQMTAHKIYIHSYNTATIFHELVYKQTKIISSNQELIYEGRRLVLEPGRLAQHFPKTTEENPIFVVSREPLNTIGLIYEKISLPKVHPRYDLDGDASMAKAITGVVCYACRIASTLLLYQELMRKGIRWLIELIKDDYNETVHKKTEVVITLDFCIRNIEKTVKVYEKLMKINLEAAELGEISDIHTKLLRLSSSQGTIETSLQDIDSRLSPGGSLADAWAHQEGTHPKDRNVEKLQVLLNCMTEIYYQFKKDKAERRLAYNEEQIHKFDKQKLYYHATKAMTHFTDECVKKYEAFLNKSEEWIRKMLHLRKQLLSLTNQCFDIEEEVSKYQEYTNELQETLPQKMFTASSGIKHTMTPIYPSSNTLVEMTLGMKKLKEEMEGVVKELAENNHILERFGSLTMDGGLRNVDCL
Method in brief: as §1

TRKB = biological target: T23, TRKB (Homo sapiens, UniProt Q16620)
T23 construct: purchased Carna Biosciences
T23 sequence (Q16620 32-822): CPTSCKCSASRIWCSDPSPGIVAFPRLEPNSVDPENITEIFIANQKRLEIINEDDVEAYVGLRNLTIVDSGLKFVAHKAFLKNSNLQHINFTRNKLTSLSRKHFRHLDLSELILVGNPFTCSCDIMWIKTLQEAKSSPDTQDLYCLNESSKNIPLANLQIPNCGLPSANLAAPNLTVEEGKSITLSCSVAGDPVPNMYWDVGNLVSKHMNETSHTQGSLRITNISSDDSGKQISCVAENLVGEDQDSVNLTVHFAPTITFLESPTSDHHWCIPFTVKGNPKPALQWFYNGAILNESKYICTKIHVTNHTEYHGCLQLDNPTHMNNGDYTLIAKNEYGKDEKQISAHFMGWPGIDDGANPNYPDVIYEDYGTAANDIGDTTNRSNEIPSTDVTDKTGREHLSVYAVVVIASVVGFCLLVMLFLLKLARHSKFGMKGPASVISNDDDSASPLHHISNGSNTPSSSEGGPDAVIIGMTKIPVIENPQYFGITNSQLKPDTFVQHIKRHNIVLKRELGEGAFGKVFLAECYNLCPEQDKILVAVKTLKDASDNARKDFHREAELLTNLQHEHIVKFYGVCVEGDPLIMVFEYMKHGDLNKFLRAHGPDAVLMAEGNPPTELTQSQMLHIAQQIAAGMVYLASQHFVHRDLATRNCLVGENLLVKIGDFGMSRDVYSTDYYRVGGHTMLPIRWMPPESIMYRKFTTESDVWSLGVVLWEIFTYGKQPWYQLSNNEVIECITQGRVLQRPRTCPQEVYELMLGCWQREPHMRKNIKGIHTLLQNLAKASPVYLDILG
Method in brief: as §1

IRR = biological target: T24, IRR (Homo sapiens, UniProt P14616)
T24 construct: purchased Carna Biosciences

JAK1 = biological target: T25, JAK1 (Homo sapiens, UniProt P23458)
T25 construct: purchased Carna Biosciences

KDR = biological target: T26, KDR (Homo sapiens, UniProt P35968)
T26 construct: purchased Carna Biosciences

SYK = biological target: T27, SYK (Homo sapiens, UniProt P43405)
T27 construct: purchased Carna Biosciences

TIE2 = biological target: T28, TIE2 (Homo sapiens, UniProt Q02763)
T28 construct: purchased Carna Biosciences
T28 sequence (Q02763 23-1124): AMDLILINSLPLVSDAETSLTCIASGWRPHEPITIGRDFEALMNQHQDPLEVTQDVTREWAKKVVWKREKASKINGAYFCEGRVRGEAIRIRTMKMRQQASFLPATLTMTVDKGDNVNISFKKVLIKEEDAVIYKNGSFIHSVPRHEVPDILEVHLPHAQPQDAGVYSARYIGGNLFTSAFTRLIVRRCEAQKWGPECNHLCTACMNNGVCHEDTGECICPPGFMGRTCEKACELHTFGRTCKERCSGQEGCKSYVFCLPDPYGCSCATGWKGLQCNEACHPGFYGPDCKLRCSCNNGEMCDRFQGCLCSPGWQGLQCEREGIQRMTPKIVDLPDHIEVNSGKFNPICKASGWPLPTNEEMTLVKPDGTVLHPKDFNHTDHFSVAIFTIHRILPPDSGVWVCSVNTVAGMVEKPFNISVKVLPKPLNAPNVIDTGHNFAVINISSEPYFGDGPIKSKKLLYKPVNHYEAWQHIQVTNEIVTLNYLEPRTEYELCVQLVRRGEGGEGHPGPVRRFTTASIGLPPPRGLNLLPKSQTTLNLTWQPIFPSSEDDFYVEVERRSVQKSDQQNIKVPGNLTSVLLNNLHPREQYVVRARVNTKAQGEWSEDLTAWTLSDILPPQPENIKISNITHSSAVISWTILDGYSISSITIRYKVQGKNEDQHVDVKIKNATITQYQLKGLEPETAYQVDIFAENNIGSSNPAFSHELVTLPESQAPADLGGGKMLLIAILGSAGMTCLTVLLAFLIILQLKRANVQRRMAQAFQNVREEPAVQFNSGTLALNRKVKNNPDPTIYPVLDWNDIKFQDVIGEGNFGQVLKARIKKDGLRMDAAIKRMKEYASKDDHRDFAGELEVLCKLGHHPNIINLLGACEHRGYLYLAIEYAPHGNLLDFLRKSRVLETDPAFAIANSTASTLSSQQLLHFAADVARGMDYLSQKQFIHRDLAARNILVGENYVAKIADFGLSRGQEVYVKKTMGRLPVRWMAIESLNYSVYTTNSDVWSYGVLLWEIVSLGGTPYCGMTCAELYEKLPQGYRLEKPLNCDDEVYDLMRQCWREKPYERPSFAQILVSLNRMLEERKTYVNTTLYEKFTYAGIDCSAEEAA

TYK2 = biological target: T29, TYK2 (Homo sapiens, UniProt P29597)
T29 construct: purchased Carna Biosciences

CRIK = biological target: T30, CRIK (Homo sapiens, UniProt O14578)
T30 construct: purchased Carna Biosciences

MAP2K2_Cascade = biological target: T31, MAP2K2_Cascade (Homo sapiens, UniProt P36507)
T31 construct: purchased Carna Biosciences

MAP2K6_Cascade = biological target: T32, MAP2K6_Cascade (Homo sapiens, UniProt P52564)
T32 construct: purchased Carna Biosciences
T32 sequence (P52564 whole entry): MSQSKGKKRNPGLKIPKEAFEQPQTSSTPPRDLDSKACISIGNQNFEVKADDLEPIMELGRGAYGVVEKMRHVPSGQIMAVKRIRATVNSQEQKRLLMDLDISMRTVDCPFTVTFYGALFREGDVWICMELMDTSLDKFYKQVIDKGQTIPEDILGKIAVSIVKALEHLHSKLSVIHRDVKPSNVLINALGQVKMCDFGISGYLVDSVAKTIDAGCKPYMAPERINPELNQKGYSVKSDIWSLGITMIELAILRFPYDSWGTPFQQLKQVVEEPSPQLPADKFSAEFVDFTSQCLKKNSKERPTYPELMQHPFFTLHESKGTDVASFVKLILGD

MLK1_Cascade = biological target: T33, MLK1_Cascade (Homo sapiens, UniProt P80192)
T33 construct: purchased Carna Biosciences

PLK2 = biological target: T34, PLK2 (Homo sapiens, UniProt Q9NYY3)
T34 construct: purchased Carna Biosciences

RAF1_Cascade = biological target: T35, RAF1_Cascade (Homo sapiens, UniProt P04049)
T35 construct: purchased Carna Biosciences

RSK1 = biological target: T36, RSK1 (Homo sapiens, UniProt Q15418)
T36 construct: purchased Carna Biosciences

Compound: [H]/N=C1/NC(=O)C(=Cc2ccc3c(c2)CCO3)S1 [CaNDY, (Z)-5-[(2,3-dihydrobenzofuran-5-yl)methylene]-2-iminothiazolidin-4-one]
- remaining activity at 1 µM (ALK(F1174L)): 97.9%
- remaining activity at 1 µM (AurA): 114%
- remaining activity at 1 µM (BRAF_Cascade): 108%
- remaining activity at 1 µM (BRSK2): 97.8%
- remaining activity at 1 µM (CK1δ): 67.9%
- %Activity (CSK): 99.7%
- remaining activity at 1 µM (CaMK2α): 104%
- remaining activity at 1 µM (EEF2K): 97.2%
- remaining activity at 1 µM (EPHA3): 96.3%
- remaining activity at 1 µM (EPHB3): 98.6%
- remaining activity at 1 µM (FRK): 102%
- remaining activity at 1 µM (KIT(D816V)): 92.2%
- %Activity (LOK): 106.3%
- remaining activity at 1 µM (LYNa): 97.6%
- remaining activity at 1 µM (MSSK1): 98%
- %Activity (MST3): 100.2%
- remaining activity at 1 µM (NEK4): 86.2%
- %Activity (PKR): 95.4%
- remaining activity at 1 µM (PLK3): 95.9%
- remaining activity at 1 µM (ROCK2): 103%
- remaining activity at 1 µM (SRM): 77%
- remaining activity at 1 µM (TBK1): 100%
- remaining activity at 1 µM (TRKB): 101%
- remaining activity at 1 µM (IRR): 103%
- %Activity (JAK1): 96.9%
- remaining activity at 1 µM (KDR): 102%
- %Activity (SYK): 93.7%
- remaining activity at 1 µM (TIE2): 101%
- %Activity (TYK2): 97.4%
- %Activity (CRIK): 87.0%
- remaining activity at 1 µM (MAP2K2_Cascade): 94.7%
- remaining activity at 1 µM (MAP2K6_Cascade): 99.5%
- remaining activity at 1 µM (MLK1_Cascade): 99.9%
- %Activity (PLK2): 95.9%
- remaining activity at 1 µM (RAF1_Cascade): 82.3%
- remaining activity at 1 µM (RSK1): 91.2%
